In BindingDB's records for doi:10.1021/jm00046a008 (University of Alabama At Birmingham, 1994):

Biological target: Carnitine O-acetyltransferase (Columba livia)
Test: Tested against pigeon breast carnitine acyltransferase

SMILES	Ki [mM]
CC(=O)NC(CC(=O)O)CC(C)(C)C (configuration not stated) [3-Acetylamino-5,5-dimethyl-hexanoic acid anion]	25
CC(=O)NC(CC(=O)[O-])C[N+](C)(C)C (configuration not stated) [(2-Acetylamino-3-carboxy-propyl)-trimethyl-ammonium]	0.024
